In patent publication US11466028B2, “Fused 1,4-oxazepines as BET protein degraders” (THE REGENTS OF THE UNIVERSITY OF MICHIGAN, priority 2016, dated 2022):

Key:
MOLM-13 = test: CellTiter-Glo cell growth inhibition, MOLM-13; type: cell-based; settings: Homo sapiens, MOLM-13, 96 h, 4 days, Table 4, read-out: MOLM-13 IC50
Description: (§1) Cell growth inhibitory activity of representative Compounds of the Disclosure was determined using the CellTiter-Glo® Luminescent Cell Viability Assay. Cells were seeded in 384-well white opaque cell culture plates at a density of 2,000 cells/well with serially diluted compounds and incubated at 37° C. in an atmosphere of 95% air and 5% CO2 for 4 days. Cell viability was determined using the CellTiter-Glo® Luminescent Cell Viability Assay Kit (Promega, Madison, Wis.) according to the manufacture's instruction. Briefly, a volume of CellTiter-Glo® Reagent equal to the volume of cell culture medium was added to each well, and then the plates were incubated at room temperature for 10-20 minutes. The luminescent signal was measured using a Tecan Infinite M1000 multimode microplate reader (Tecan, Morrisville, N.C.). The half maximal inhibitory concentration (IC50) was calculated using the GraphPad Prism 5 software (GraphPad Software, La Jolla, Calif.).
(§2) Cpd. Nos. 18 and 19 were tested in various leukemia cell lines using the CellTiter-Glo® Luminescent Cell Viability Assay as described in Example 35.

RS4;11 = test: CellTiter-Glo cell growth inhibition, RS4;11; type: cell-based; settings: Homo sapiens, RS4-11, 96 h, 4 days, Table 4, read-out: RS-4, 11 IC50
Description: as §1, §2

MDA-MB-231 = test: CellTiter-Glo cell growth inhibition, MDA-MB-231; type: cell-based; settings: Homo sapiens, MDA-MB-231, 96 h, 4 days, Table 4
Description: as §1

RS4;11 xenograph tumors = test: RS4;11 xenograft model; type: in vivo, SCID mice; settings: SCID mice
Description: Cpd. Nos. 7 and 11 were dissolved in 10% PCP [10% PEG400 (Sigma), 3% Cremophor (Sigma), and 87% PBS (Gibco)]. The pH of the drug solutions were checked before use and adjusted with 0.5N NaOH to be between pH 6.5 and 8.0 for IV (intravenous) administration.
RS4;11 cells were maintained at 37° C., 95% air, 5% carbon dioxide in Improved MEM (Richter's Mod.) supplemented with 10% Fetal Bovine Serum, 100 units/ml of penicillin and 100 units/ml of streptomycin (GIBCO™, Invitrogen Corp.) and passaged twice weekly.
Tumor cells for xenografts were harvested with Trypsin (0.05%)-EDTA (0.53 mM) (GIBCO™, Invitrogen Corp.), growth medium added and cells placed on ice. Cells were washed once with 1×PBS (GIBCO™, Invitrogen Corp.) and re-suspended in PBS. After washing in PBS, cells were re-suspended in an ice cold mixture of 1:1 PBS and Matrigel (BD Biosciences, Invitrogen Corp.) for a final Matrigel protein concentration of 5 mg/ml. Cells at 5×10^6 cells in 0.1 ml were injected subcutaneously (s.c.) into the flank region of each mouse using a 25 gauge needle. All tumors were inoculated into SCID mice (strain:236) C.B-17 SCID, Charles River.
The size of tumors growing in the mice was measured in two dimensions using calipers. Tumor volume (mm^3)═(A×B^2)/2 where A and B are the tumor length and width (in mm), respectively. During treatment, tumor volume and body weight were measured three times a week. After the treatment was stopped, tumor volume and body weight was measured at least once a week.
Tumors were not allowed to exceed 10% of the animals total body weight. If an animal had two or more tumors the total weight of all tumors were not allowed to exceed 10% of the animal's total body weight. At the end of the experimental period or when tumor size approached 10% of the total body weight, the animal was euthanized.
Before treatment began, tumors were allowed to grow to 100-200 mm^3 in volume, at which point the blood vessel supplies to the tumor should have been well established. Mice with tumors within acceptable size range were randomized into treatment groups of seven mice. Cpd. Nos. 7 and 11 were given i.v. at 10 mg/kg at days 1,3, and 5 per week for two weeks. The Control group received vehicle alone. Cpd. Nos. 16, 18, 22 and 48 were given i.v. at 5 mg/kg at days 1, 3, and 5 per week for two weeks. The Control group received vehicle alone.
(§3) Representative Compounds of the Disclosure were tested in the RS4;11 and other xenograph models using similar techniques. […] No. 22 in the MDA-MB-231 TNBC model.

MV4;11 xenograph = MV4;11 xenograph model; type: in vivo; settings: FIG. 9
Description: as §3

[1] = i.v. 5 mg/kg at days 1, 3, 5 per week for two weeks, FIG. 4

SMILES | IC50 (MOLM-13) | IC50 (RS4;11) | IC50 (MDA-MB-231) | tumor regression in RS4;11 xenograph tumors (RS4;11 xenograph tumors; [1]) | tumor regression in the MV4;11 xenograph model (MV4;11 xenograph) | tumor regression in RS4;11 xenograph tumors (RS4;11 xenograph tumors; i.v. 10 mg/kg at days 1, 3, 5 per week for two weeks, FIG. 3)
Cc1nnc2n1-c1sc(C#Cc3cnn(CCCCNc4cccc5c4C(=O)N(C4CCC(=O)NC4=O)C5=O)c3)c(Cc3ccccc3)c1COC2 (stereo not shown) [Cpd. No. 16, 4-((4-(4-((3-benzyl-9-methyl-4H,6H-thieno[2,3-e][1,2,4]triazolo[3,4-c][1,4]oxazepin-2-yl)ethynyl)-1H-pyrazol-1-yl)butyl)amino)-2-(2,6-dioxopiperidin-3-yl) isoindoline-1,3-dione] | 0.9 nM | 0.1 nM | 0.29 nM | induce tumor regression | – | –
Cc1nnc2n1-c1sc(C#Cc3cnn(CCCCNc4cccc5c4CN(C4CCC(=O)NC4=O)C5=O)c3)c(Cc3ccccc3)c1COC2 (stereo not shown) [Cpd. No. 17, 3-(4-((4-(4-((3-benzyl-9-methyl-4H,6H-thieno[2,3-e][1,2,4]triazolo[3,4-c][1,4]oxazepin-2-yl)ethynyl)-1H-pyrazol-1-yl)butyl)amino)-1-oxoisoindolin-2-yl) piperidine-2,6-dione] | 0.5 nM | 0.06 nM | 0.21 nM | – | induce tumor regression | –
Cc1nnc2n1-c1sc(C#Cc3cnn(CCCCNc4cccc5c4CN(C4CCC(=O)NC4=O)C5=O)c3)c(Cc3ccccc3)c1CO[C@H]2C (stereo partly drawn) [Cpd. No. 11, 3-(4-((4-(4-(((S)-3-benzyl-6,9-dimethyl-4H,6H-thieno[2,3-e][1,2,4]triazolo[3,4-c][1,4]oxazepin-2-yl)ethynyl)-1H-pyrazol-1-yl)butyl)amino)-1-oxoisoindolin-2-yl) piperidine-2,6-dione] | 0.4 nM | – | 2.3 nM | – | – | induce tumor regression
Cc1nnc2n1-c1sc(C#Cc3cnn(CCCCOc4cccc5c4CN(C4CCC(=O)NC4=O)C5=O)c3)c(Cc3ccccc3)c1COC2 (stereo not shown) [compound 65, 3-(4-(4-(4-((3-benzyl-9-methyl-4H,6H-thieno[2,3-e][1,2,4]triazolo[3,4-c][1,4]oxazepin-2-yl)ethynyl)-1H-pyrazol-1-yl)butoxy)-1-oxoisoindolin-2-yl)piperidine-2,6-dione] | – | – | – | – | induce tumor regression | –
Cc1nnc2n1-c1sc(C#Cc3ccc(CCCCNc4cc(F)cc5c4CN(C4CCC(=O)NC4=O)C5=O)nc3)c(Cc3ccccc3)c1COC2 (stereo not shown) [Cpd. No. 47, 3-(4-((4-(5-((3-benzyl-9-methyl-4H,6H-thieno[2,3-e][1,2,4]triazolo[3,4-c][1,4]oxazepin-2-yl)ethynyl)pyridin-2-yl)butyl)amino)-6-fluoro-1-oxoisoindolin-2-yl)piperidine-2,6-dione] | 1.8 nM | < 0.1 nM | 2.3 nM | – | – | –
Cc1nnc2n1-c1sc(C#Cc3cnn(CCCC#Cc4cccc5c4C(=O)N(C4CCC(=O)NC4=O)C5=O)c3)c(Cc3ccccc3)c1CO[C@H]2C (stereo partly drawn) [Cpd. No. 14, 4-(5-(4-(((S)-3-benzyl-6,9-dimethyl-4H,6H-thieno[2,3-e][1,2,4]triazolo[3,4-c][1,4]oxazepin-2-yl)ethynyl)-1H-pyrazol-1-yl)pent-1-yn-1-yl)-2-(2,6-dioxopiperidin-3-yl)isoindoline-1,3-dione] | 8.7 nM | 0.43 nM | 9.3 nM | – | – | –

Now from value to molecule, other results behind:

IC50 (MOLM-13) | IC50 (RS4;11) | IC50 (MDA-MB-231) | SMILES | tumor regression in RS4;11 xenograph tumors (RS4;11 xenograph tumors; [1]) | tumor regression in the MV4;11 xenograph model (MV4;11 xenograph) | tumor regression in RS4;11 xenograph tumors (RS4;11 xenograph tumors; i.v. 10 mg/kg at days 1, 3, 5 per week for two weeks, FIG. 3)
1.7 nM | 0.22 nM | 0.33 nM | Cc1nnc2n1-c1sc(C#Cc3cnn(CCCCCc4cccc5c4CN(C4CCC(=O)NC4=O)C5=O)c3)c(Cc3ccccc3)c1COC2 (stereo not shown) [Cpd. No. 48, 3-(4-(5-(4-((3-benzyl-9-methyl-4H,6H-thieno[2,3-e][1,2,4]triazolo[3,4-c][1,4]oxazepin-2-yl)ethynyl)-1H-pyrazol-1-yl)pentyl)-1-oxoisoindolin-2-yl) piperidine-2,6-dione] | induce tumor regression | – | –
15.7 nM | 3 nM | 60 nM | Cc1nnc2n1-c1sc(C#Cc3cn(CCCC#Cc4cccc5c4C(=O)N(C4CCC(=O)NC4=O)C5=O)cn3)c(Cc3ccccc3)c1CO[C@H]2C (stereo partly drawn) [compound 21, 4-(5-(4-(((S)-3-benzyl-6,9-dimethyl-4H,6H-thieno[2,3-e][1,2,4]triazolo[3,4-c][1,4]oxazepin-2-yl)ethynyl)-1H-imidazol-1-yl)pent-1-yn-1-yl)-2-(2,6-dioxopiperidin-3-yl)isoindoline-1,3-dione] | – | – | –
> 10 nM | > 1 nM | > 100 nM | Cc1nnc2n1-c1sc(C#Cc3cn(CCCC#Cc4cccc5c4CN(C4CCC(=O)NC4=O)C5=O)cn3)c(Cc3ccccc3)c1COC2 (stereo not shown) [Cpd. No. 50, 3-(4-(5-(4-((3-benzyl-9-methyl-4H,6H-thieno[2,3-e][1,2,4]triazolo[3,4-c][1,4]oxazepin-2-yl)ethynyl)-1H-imidazol-1-yl)pent-1-yn-1-yl)-1-oxoisoindolin-2-yl)piperidine-2,6-dione] | – | – | –
